Source: PMC11031820, “Structural determinants of the direct inhibition of GIRK channels by Sigma-1 receptor antagonist” (The Journal of Biological Chemistry, 2024)

How the values were obtained:
Format in all cases: cell-based
GIRK2 [1] = target: T1, GIRK2 (Mus musculus, UniProt P48542); test: two-electrode voltage clamp in Xenopus oocytes, homomeric GIRK2 co-expressed with Gβγ
T1 construct: gene Kcnj6

GIRK4 [2] = target: T2, GIRK4 (Rattus norvegicus, UniProt P48548, E147Q); test: two-electrode voltage clamp in Xenopus oocytes, […] compound
T2 construct: gene Kcnj5

GIRK4 [3] = target: T3, GIRK4 (Rattus norvegicus, UniProt P48548); test: two-electrode voltage clamp in Xenopus oocytes, homomeric GIRK4 co-expressed with Gβγ
T3 construct: gene Kcnj5

GIRK2 [4] = target: T4, GIRK2 (Mus musculus, UniProt P48542, I82L); test: two-electrode voltage clamp in Xenopus oocytes, […] compound
T4 construct: gene Kcnj6

GIRK2 [5] = target: T1, GIRK2; test: two-electrode voltage clamp in Xenopus oocytes, GIRK2+Gβγ, […] compound
GIRK4 [6] = target: T3, GIRK4; test: two-electrode voltage clamp in Xenopus oocytes, GIRK4+Gβγ, […] compound

T1 sequence (P48542 whole entry): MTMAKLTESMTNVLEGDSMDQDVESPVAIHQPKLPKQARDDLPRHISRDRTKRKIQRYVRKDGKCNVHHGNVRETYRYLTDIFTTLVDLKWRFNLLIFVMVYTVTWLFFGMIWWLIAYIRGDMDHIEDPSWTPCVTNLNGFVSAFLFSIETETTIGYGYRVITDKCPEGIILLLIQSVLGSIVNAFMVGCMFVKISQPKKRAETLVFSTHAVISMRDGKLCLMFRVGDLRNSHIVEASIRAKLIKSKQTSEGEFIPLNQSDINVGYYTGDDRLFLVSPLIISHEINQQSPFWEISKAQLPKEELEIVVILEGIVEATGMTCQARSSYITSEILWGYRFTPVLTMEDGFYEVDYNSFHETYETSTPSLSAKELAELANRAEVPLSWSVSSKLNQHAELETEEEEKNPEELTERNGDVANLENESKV
T1 sequence (P62871 2-340 partner): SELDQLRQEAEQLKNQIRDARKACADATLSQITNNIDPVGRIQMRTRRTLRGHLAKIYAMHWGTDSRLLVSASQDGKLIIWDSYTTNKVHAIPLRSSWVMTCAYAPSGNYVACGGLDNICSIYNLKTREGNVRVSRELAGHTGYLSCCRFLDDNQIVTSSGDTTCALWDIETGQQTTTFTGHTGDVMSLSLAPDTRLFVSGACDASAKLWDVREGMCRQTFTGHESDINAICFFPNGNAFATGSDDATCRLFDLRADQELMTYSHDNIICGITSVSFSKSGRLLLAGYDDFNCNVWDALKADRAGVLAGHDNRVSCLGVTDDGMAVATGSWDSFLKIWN
T1 sequence (P63212 2-68 partner): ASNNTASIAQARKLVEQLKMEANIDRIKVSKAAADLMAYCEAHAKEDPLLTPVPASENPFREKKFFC
T3 sequence (P48548 whole entry): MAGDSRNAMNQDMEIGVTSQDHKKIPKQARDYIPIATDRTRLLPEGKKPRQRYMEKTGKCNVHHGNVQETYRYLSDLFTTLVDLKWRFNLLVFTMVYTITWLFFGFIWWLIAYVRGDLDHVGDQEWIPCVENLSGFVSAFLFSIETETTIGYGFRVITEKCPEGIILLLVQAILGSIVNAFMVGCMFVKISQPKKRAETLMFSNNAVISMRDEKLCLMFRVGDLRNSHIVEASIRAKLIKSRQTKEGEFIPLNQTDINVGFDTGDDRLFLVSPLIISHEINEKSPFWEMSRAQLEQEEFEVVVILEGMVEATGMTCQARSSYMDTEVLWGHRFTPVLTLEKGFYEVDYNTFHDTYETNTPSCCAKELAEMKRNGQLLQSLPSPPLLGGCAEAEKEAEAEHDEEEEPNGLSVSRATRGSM
T3 sequence (P62871 2-340 partner): as the sequence (P62871 2-340 partner) above
T3 sequence (P63212 2-68 partner): as the sequence (P63212 2-68 partner) above
T2 sequence (P48548 whole entry E147Q): as the sequence (P48548 whole entry) above, with E147Q counted along it
T2 sequence (P62871 2-340 partner): as the sequence (P62871 2-340 partner) above
T2 sequence (P63212 2-68 partner): as the sequence (P63212 2-68 partner) above
T4 sequence (P48542 whole entry I82L): as the sequence (P48542 whole entry) above, with I82L counted along it
T4 sequence (P62871 2-340 partner): as the sequence (P62871 2-340 partner) above
T4 sequence (P63212 2-68 partner): as the sequence (P63212 2-68 partner) above

Compound: CN(C)CCN(C)CCc1ccc(Cl)c(Cl)c1 [BD1047]
- IC50 (GIRK2 [1]): 75.4 ± 9.7 µM
- two-electrode voltage clamp in Xenopus oocytes, 100 μM compound (GIRK4 [2]): It was observed that GIRK4 E147Q maintained the strong inhibition as WT
- IC50 (GIRK4 [3]): 17.4 ± 3.7 µM
- inhibition at 100 µM (GIRK2 [4]): 61 ± 1.9%

Compound: CN1CCN(CCc2ccc(Cl)c(Cl)c2)CC1 [BD1063]
- inhibition at 100 µM (GIRK2 [5]): 31.1 ± 12%
- inhibition at 100 µM (GIRK4 [6]): 61.4 ± 2.6%
